From patent publication US7351733B2, “Tetrahydrocarbazole derivatives and their pharmaceutical use” (SmithKline Beecham Corporation, priority 2003, dated 2008)
Counter-ions that a name gives are not always drawn. Like-named read-outs stand apart in the source and are kept apart here.

Test system: episomal HPV-16 DNA in W12-20850 cells
Experiment: W-12 cellular assay (episomal HPV-16 DNA, hybrid capture)
Assay type: cell-based, HPV16
[1] = Human papillomavirus 16, 96 h, W12-20850 cells, four days incubation, episomal HPV-16 DNA quantified by hybrid capture, inhibition relative to untreated control cells, read-out: W-12
[2] = Human papillomavirus 16, W12-20850, 96 h, read-out: W-12 (nM)

SMILES | IC50 [1] | IC50 [2]
Cc1ccc2[nH]c3c(c2c1)CCCC3Nc1ncccn1 (stereo not drawn) [Example 29, 6-Methyl-N-pyrimidin-2-yl-2,3,4,9-tetrahydro-1H-carbazol-1-amine] | 252 nM | –
Brc1ccc2[nH]c3c(c2c1)CCCC3Nc1ccccn1 (stereo not drawn) [Example 27, 6-Bromo-N-pyridin-2-yl-2,3,4,9-tetrahydro-1H-carbazol-1-amine hydrochloride] | – | 37 nM
FC(F)(F)c1ccc2[nH]c3c(c2c1)CCCC3Nc1ccccc1 (stereo not drawn) [Example 43, N-Phenyl-6-(trifluoromethyl)-2,3,4,9-tetrahydro-1H-carbazol-1-amine hydrochloride] | – | 51 nM
COc1ccc(NC2CCCc3c2[nH]c2ccc(Br)cc32)cc1 (stereo not drawn) [Example 19, 6-Bromo-N-(4-methoxyphenyl)-2,3,4,9-tetrahydro-1H-carbazol-1-amine] | < 10 nM | –
Clc1ccc2[nH]c3c(c2c1)CCCC3Nc1ncccn1 (stereo not drawn) [Example 23, 6-Chloro-N-pyrimidin-2-yl-2,3,4,9-tetrahydro-1H-carbazol-1-amine] | 44 nM | –
COc1ccc(NC2CCCc3c2[nH]c2ccc(Cl)cc32)cc1 (stereo not drawn) [Example 15, 6-Chloro-N-(4-methoxyphenyl)-2,3,4,9-tetrahydro-1H-carbazol-1-amine] | 10 nM | –
Clc1ccc(NC2CCCc3c2[nH]c2ccc(Br)cc32)cc1 (stereo not drawn) [Example 20, 6-Bromo-N-(4-chlorophenyl)-2,3,4,9-tetrahydro-1H-carbazol-1-amine] | < 10 nM | –
Brc1ccc2[nH]c3c(c2c1)CCCC3Nc1ccccc1 (stereo not drawn) [Example 13, 6-Bromo-N-phenyl-2,3,4,9-tetrahydro-1H-carbazol-1-amine] | 10 nM | –
Cc1cc(C)nc(NC2CCCc3c2[nH]c2ccc(Br)cc32)n1 (stereo not drawn) [Example 32, 6-Bromo-N-(4,6-dimethylpyrimidin-2-yl)-2,3,4,9-tetrahydro-1H-carbazol-1-amine hydrochloride] | – | 12 nM
Cc1cc(C)nc(NC2CCCc3c2[nH]c2ccc(Cl)cc32)n1 (stereo not drawn) [Example 26, 6-Chloro-N-(4,6-dimethylpyrimidin-2-yl)-2,3,4,9-tetrahydro-1H-carbazol-1-amine] | 62 nM | –
Clc1ccc2[nH]c3c(c2c1)CCCC3Nc1ccccc1 (stereo not drawn) [Example 14, 6-Chloro-N-phenyl-2,3,4,9-tetrahydro-1H-carbazol-1-amine] | < 10 nM | –
FC(F)(F)c1ccc(NC2CCCc3c2[nH]c2ccc(Br)cc32)nc1 (stereo not drawn) [Example 34, 6-Bromo-N-[5-(trifluoromethyl)pyridin-2-yl]-2,3,4,9-tetrahydro-1H-carbazol-1-amine] | < 10 nM | –
Fc1cccc(NC2CCCc3c2[nH]c2ccc(Br)cc32)c1 (stereo not drawn) [Example 46, 6-Bromo-N-(3-fluorophenyl)-2,3,4,9-tetrahydro-1H-carbazol-1-amine] | < 10 nM | –
Brc1ccc2[nH]c3c(c2c1)CCCC3Nc1ccc2[nH]ccc2c1 (stereo not drawn) [Example 47, 6-Bromo-N-(1H-indol-5-yl)-2,3,4,9-tetrahydro-1H-carbazol-1-amine] | 112 nM | –
COc1cccc(NC2CCCc3c2[nH]c2ccc(Br)cc32)c1 (stereo not drawn) [Example 45, 6-Bromo-N-(3-methoxyphenyl)-2,3,4,9-tetrahydro-1H-carbazol-1-amine] | < 10 nM | –
Brc1ccc2[nH]c3c(c2c1)CCCC3Nc1ncccn1 (stereo not drawn) [Example 22, 6-Bromo-N-pyrimidin-2-yl-2,3,4,9-tetrahydro-1H-carbazol-1-amine hydrochloride] | – | 97 nM
COc1cc(OC)nc(NC2CCCc3c2[nH]c2ccc(C)cc32)n1 (stereo not drawn) [Example 31, N-(4,6-Dimethoxypyrimidin-2-yl)-6-methyl-2,3,4,9-tetrahydro-1H-carbazol-1-amine hydrochloride] | – | 70 nM
Cc1ccnc(NC2CCCc3c2[nH]c2ccc(Cl)cc32)n1 (stereo not drawn) [Example 25, 6-Chloro-N-(4-methylpyrimidin-2-yl)-2,3,4,9-tetrahydro-1H-carbazol-1-amine] | 35 nM | –

Further lines, with some results ahead:

IC50 [1] | SMILES | IC50 [2]
15 nM | CCCc1cnc(NC2CCCc3c2[nH]c2ccc(Br)cc32)nc1 (stereo not drawn) [Example 28, 6-Bromo-N-(5-propylpyrimidin-2-yl)-2,3,4,9-tetrahydro-1H-carbazol-1-amine] | –
22 nM | Clc1ccc(NC2CCCc3c2[nH]c2ccc(Br)cc32)cc1Cl (stereo not drawn) [Example 51, 6-Bromo-N-(3,4-dichlorophenyl)-2,3,4,9-tetrahydro-1H-carbazol-1-amine] | –
44 nM | FC(F)(F)c1cnc(NC2CCCc3c2[nH]c2ccc(Br)cc32)nc1 (stereo not drawn) [Example 33, 6-Bromo-N-[5-(trifluoromethyl)pyrimidin-2-yl]-2,3,4,9-tetrahydro-1H-carbazol-1-amine] | –
< 10 nM | Brc1ccc2[nH]c3c(c2c1)CCCCC3Nc1ncccn1 (stereo not drawn) [Example 38, 2-Bromo-N-pyrimidin-2-yl-5,6,7,8,9,10-hexahydrocyclohepta[b]indol-6-amine] | –
70 nM | Fc1ccccc1NC1CCCc2c1[nH]c1ccc(Br)cc21 (stereo not drawn) [Example 50, 6-Bromo-N-(2-fluorophenyl)-2,3,4,9-tetrahydro-1H-carbazol-1-amine] | –
4500 nM | c1cnc(NC2CCCc3c2[nH]c2ccccc32)nc1 (stereo not drawn) [Example 37, N-Pyrimidin-2-yl-2,3,4,9-tetrahydro-1H-carbazol-1-amine] | –
30 nM | N#Cc1ccc(NC2CCCc3c2[nH]c2ccc(Br)cc32)nc1 (stereo not drawn) [Example 35, 6-[(6-Bromo-2,3,4,9-tetrahydro-1H-carbazol-1-yl)amino]nicotinonitrile] | –
< 10 nM | Fc1ccc(NC2CCCc3c2[nH]c2ccc(Br)cc32)cc1 (stereo not drawn) [Example 21, 6-Bromo-N-(4-fluorophenyl)-2,3,4,9-tetrahydro-1H-carbazol-1-amine] | –
14 nM | Clc1ccc(NC2CCCc3c2[nH]c2ccc(Cl)cc32)cc1 (stereo not drawn) [Example 16, 6-Chloro-N-(4-chlorophenyl)-2,3,4,9-tetrahydro-1H-carbazol-1-amine] | –
23 nM | Fc1ccc(NC2CCCc3c2[nH]c2ccc(Cl)cc32)cc1 (stereo not drawn) [Example 17, 6-Chloro-N-(4-fluorophenyl)-2,3,4,9-tetrahydro-1H-carbazol-1-amine] | –
72 nM | Brc1ccc2[nH]c3c(c2c1)CCCC3Nc1nc2ccccc2s1 (stereo not drawn) [Example 36, N-(1,3-Benzothiazol-2-yl)-6-bromo-2,3,4,9-tetrahydro-1H-carbazol-1-amine] | –
< 10 nM | Clc1ccccc1NC1CCCc2c1[nH]c1ccc(Br)cc21 (stereo not drawn) [Example 49, 6-Bromo-N-(2-chlorophenyl)-2,3,4,9-tetrahydro-1H-carbazol-1-amine] | –
19 nM | Cc1ccc(NC2CCCc3c2[nH]c2ccc(Cl)cc32)cc1 (stereo not drawn) [Example 18, 6-Chloro-N-(4-methylphenyl)-2,3,4,9-tetrahydro-1H-carbazol-1-amine] | –
30 nM | COc1cc(OC)nc(NC2CCCc3c2[nH]c2ccc(Cl)cc32)n1 (stereo not drawn) [Example 24, 6-Chloro-N-(4,6-dimethoxypyrimidin-2-yl)-2,3,4,9-tetrahydro-1H-carbazol-1-amine] | –
57 nM | COc1ccccc1NC1CCCc2c1[nH]c1ccc(Br)cc21 (stereo not drawn) [Example 48, 6-Bromo-N-(2-methoxyphenyl)-2,3,4,9-tetrahydro-1H-carbazol-1-amine] | –
